Reference: US12162890B2 (Novartis AG, priority 2015, dated 2024)

These compounds were tested against HEK293 cells with stable expression of the GRIN1 gene and tetracycline-inducible expression of the GRIN2B gene (NMDA receptor, NR2B) (Homo sapiens, UniProt Q13224) (assay: Fluo-8 Ca2+ flux assay: reversal of Ro 25-6981-mediated suppression of the Ca2+ response to co-agonist (glutamate/glycine)). Conditions: reversal of the Ro 25-6981 suppression of the Ca2+ response to co-agonist (glutamate/glycine).
Type: cell-based
Further: test concentration or dose not given here.

Sequence of HEK293 cells with stable expression of the GRIN1 gene and tetracycline-inducible expression of the GRIN2B gene (NMDA receptor, NR2B) (Q13224 27-1484, other chains not shown): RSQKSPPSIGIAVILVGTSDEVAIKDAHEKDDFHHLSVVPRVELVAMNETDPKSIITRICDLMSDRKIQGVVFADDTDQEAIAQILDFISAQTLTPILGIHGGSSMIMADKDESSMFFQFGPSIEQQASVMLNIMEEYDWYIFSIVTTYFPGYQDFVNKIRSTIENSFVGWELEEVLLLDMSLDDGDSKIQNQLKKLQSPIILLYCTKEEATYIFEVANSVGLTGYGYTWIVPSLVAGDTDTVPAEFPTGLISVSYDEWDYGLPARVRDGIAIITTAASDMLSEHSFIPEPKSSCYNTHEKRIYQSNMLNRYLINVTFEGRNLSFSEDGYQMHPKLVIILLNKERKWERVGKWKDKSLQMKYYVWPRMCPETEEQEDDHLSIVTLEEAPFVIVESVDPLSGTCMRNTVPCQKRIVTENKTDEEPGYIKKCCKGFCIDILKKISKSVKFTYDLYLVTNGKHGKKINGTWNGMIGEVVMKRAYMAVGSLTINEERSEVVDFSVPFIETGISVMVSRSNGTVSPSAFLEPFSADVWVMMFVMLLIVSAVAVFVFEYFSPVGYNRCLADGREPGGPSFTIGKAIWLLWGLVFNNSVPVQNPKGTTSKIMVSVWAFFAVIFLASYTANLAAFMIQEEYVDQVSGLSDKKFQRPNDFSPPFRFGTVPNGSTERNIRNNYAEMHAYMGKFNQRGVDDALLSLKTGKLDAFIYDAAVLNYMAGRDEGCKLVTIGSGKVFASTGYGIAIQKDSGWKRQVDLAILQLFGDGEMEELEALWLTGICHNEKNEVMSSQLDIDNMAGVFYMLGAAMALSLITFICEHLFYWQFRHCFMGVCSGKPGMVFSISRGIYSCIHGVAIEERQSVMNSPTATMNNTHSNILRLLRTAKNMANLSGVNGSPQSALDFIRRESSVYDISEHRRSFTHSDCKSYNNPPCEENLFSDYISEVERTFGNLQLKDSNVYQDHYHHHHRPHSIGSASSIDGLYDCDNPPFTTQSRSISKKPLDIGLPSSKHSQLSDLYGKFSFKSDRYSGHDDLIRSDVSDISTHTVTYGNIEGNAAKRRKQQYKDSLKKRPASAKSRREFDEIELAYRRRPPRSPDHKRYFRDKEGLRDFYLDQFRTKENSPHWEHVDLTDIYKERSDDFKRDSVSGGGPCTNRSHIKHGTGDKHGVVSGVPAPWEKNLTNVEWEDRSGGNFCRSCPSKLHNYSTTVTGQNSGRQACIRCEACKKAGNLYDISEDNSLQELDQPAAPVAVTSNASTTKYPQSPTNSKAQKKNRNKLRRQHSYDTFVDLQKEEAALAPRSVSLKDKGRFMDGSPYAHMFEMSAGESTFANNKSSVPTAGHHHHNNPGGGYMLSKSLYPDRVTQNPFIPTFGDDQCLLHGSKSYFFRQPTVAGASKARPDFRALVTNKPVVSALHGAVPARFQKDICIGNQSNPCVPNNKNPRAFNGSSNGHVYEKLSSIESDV

Row | Response Recovered (%) | SMILES
1 | 79 | CCC1(F)CN(C(=O)Cn2ccc3c(c(-c4ccc(F)c(Cl)c4)cn3C3CC3)c2=O)C1 [Example 237, 3-(3-chloro-4-fluorophenyl)-1-cyclopropyl-5-(2-(3-ethyl-3-fluoroazetidin-1-yl)-2-oxoethyl)-1H-pyrrolo[3,2-c]pyridin-4(5H)-one]
2 | −1 | O=C(Cn1ncc2scc(-c3ccc(Cl)c(C(F)(F)F)c3)c2c1=O)N1CCC(F)C1 (stereo not shown) [Example 344, 3-(4-chloro-3-(trifluoromethyl)phenyl)-5-(2-(3-fluoropyrrolidin-1-yl)-2-oxoethyl)thieno[2,3-d]pyridazin-4(5H)-one]
3 | 8 | O=C(Cn1ccc2ccc(-c3ccc(F)c(C(F)(F)F)c3)cc2c1=O)N1CCC(F)C1 (stereo not shown) [Example 314, 7-(4-fluoro-3-(trifluoromethyl)phenyl)-2-(2-(3-fluoropyrrolidin-1-yl)-2-oxoethyl)isoquinolin-1(2H)-one]
4 | 39 | O=C(Cn1cc(CO)c2scc(-c3ccc(F)c(Cl)c3)c2c1=O)N1CCC(F)C1 (stereo not shown) [Example 129, 3-(3-chloro-4-fluorophenyl)-5-(2-(3-fluoropyrrolidin-1-yl)-2-oxoethyl)-7-(hydroxymethyl) thieno[3,2-c]pyridin-4(5H)-one]
5 | 107 | O=C(Cn1ccc2[nH]cc(-c3ccc(Cl)c(C(F)(F)F)c3)c2c1=O)N1CC(F)(F)C1 [Example 212, 3-(4-chloro-3-(trifluoromethyl)phenyl)-5-(2-(3,3-difluoroazetidin-1-yl)-2-oxoethyl)-1H-pyrrolo[3,2-c]pyridin-4(5H)-one]
6 | 11 | Cc1nc(-c2ccc(Cl)c(Cl)c2)c2c(=O)n(CC(=O)N3CCC(F)C3)ccn12 (stereo not shown) [Example 429, 1-(3,4-dichlorophenyl)-7-(2-(3-fluoropyrrolidin-1-yl)-2-oxoethyl)-3-methylimidazo[1,5-a]pyrazin-8(7H)-one]
7 | 3 | O=C(Cn1cnc2cccc(-c3ccc(Cl)cc3)c2c1=O)N1CCCC1C(F)(F)F (stereo not shown) [Example 297, 5-(4-chlorophenyl)-3-(2-oxo-2-(2-(trifluoromethyl)pyrrolidin-1-yl)ethyl)quinazolin-4(3H)-one]
8 | 34 | COCn1cc(-c2ccc(F)c(Cl)c2)c2c(=O)n(CC(=O)N3CCC(F)C3)ccc21 (stereo not shown) [Example 246, 3-(3-chloro-4-fluorophenyl)-5-(2-(3-fluoropyrrolidin-1-yl)-2-oxoethyl)-1-(methoxymethyl)-1H-pyrrolo[3,2-c]pyridin-4(5H)-one]
9 | 35 | O=C(Cn1cnc2[nH]cc(-c3ccc(Cl)c(F)c3)c2c1=O)N1CC(F)(F)C1 [Example 167, 5-(4-chloro-3-fluorophenyl)-3-(2-(3,3-difluoroazetidin-1-yl)-2-oxoethyl)-3H-pyrrolo[2,3-d]pyrimidin-4(7H)-one]
10 | 21 | O=C(Cn1cnc2c(c(-c3ccc(F)c(Cl)c3)cn2CCO)c1=O)N1CCCC1 [Example 195, 5-(3-chloro-4-fluorophenyl)-7-(2-hydroxyethyl)-3-(2-oxo-2-(pyrrolidin-1-yl)ethyl)-3H-pyrrolo[2,3-d]pyrimidin-4(7H)-one]
11 | 77 | CC1(F)CN(C(=O)Cn2ccc3scc(-c4cnc(Cl)c(Cl)c4)c3c2=O)C1 [Example 76, 3-(5,6-dichloropyridin-3-yl)-5-(2-(3-fluoro-3-methylazetidin-1-yl)-2-oxoethyl)thieno[3,2-c]pyridin-4(5H)-one]
12 | 1 | O=C(Cn1cnc2csc(-c3ccc(Cl)cc3)c2c1=O)N1CCOCC1 [Example 354, 5-(4-chlorophenyl)-3-(2-morpholino-2-oxoethyl)thieno[3,4-d]pyrimidin-4(3H)-one]

Row | SMILES | Response Recovered (%)
13 | C[Si](C)(C)CCOCn1cc(-c2ccc(Cl)c(F)c2)c2c(=O)n(CC(=O)N3CCCC3)ccc21 [Example 201, 3-(4-chloro-3-fluorophenyl)-5-(2-oxo-2-(pyrrolidin-1-yl)ethyl)-1-((2-(trimethylsilyl)ethoxy)methyl)-1H-pyrrolo[3,2-c]pyridin-4(5H)-one] | 62
